Source: patent US20230158071A1, “TUMOR COMBINED IMMUNOTHERAPY” (CRAGE medical Co., Limited, priority 2018, published 2023)

Columns and labels:
E0771ERVIII cells = test: In vitro proliferation of E0771ERVIII cells (veliparib, JQ1); format: cell-based, mouse
Text: (§1) Another small molecule drug JQ1 is a BET bromodomain inhibitor acting on BRD4, it may induce tumor cell apoptosis (i.e., slow proliferation) by targeted inhibition of BRD4, thereby achieving anti-tumor effects.

mouse CAR-T cells = test: In vitro proliferation of mouse CAR-T cells (veliparib, JQ1); format: cell-based
Text: as §1

mouse T cells = test: In vitro proliferation of mouse T cells (JQ1); format: cell-based; conditions: JQ1, dose-dependent manner
Text: as §1

CART cells = test: LDH cell killing experiment with veliparib; format: cell-based; conditions: 100 μM
Text: as §1

Cc1sc2c(c1C)C(c1ccc(Cl)cc1)=N[C@@H](CC(=O)OC(C)(C)C)c1nnc(C)n1-2 [JQ1]
proliferation of E0771ERVIII cells (E0771ERVIII cells; different concentrations of JQ1 for 48 h): could not inhibit
proliferation of CAR-T cells (mouse CAR-T cells; JQ1, dose-dependent manner): significantly inhibit
proliferation of mouse T cells (mouse T cells): significantly inhibit

C[C@]1(c2nc3c(C(N)=O)cccc3[nH]2)CCCN1 [veliparib]
concentration level that may affect the proliferation level of E0771ERVIII cells (E0771ERVIII cells; in vitro): ≥ 10 µM
concentration that may significantly inhibit the proliferation of E0771ERVIII cells (E0771ERVIII cells; in vitro): ≥ 20 µM
proliferation of mouse CAR-T cells (mouse CAR-T cells; veliparib at 20 μM or more): significantly inhibit
killing effect of CART cells (CART cells): could not improve
